In ChEMBL document CHEMBL3507680, “University of Dundee, Gates Library screen for HepG2 cell viability”:

Experiment: Human HepG2 cell viability assay in 384 well format
Assay type: toxicity, cell-based
Design: dose 125 nL, time 70.5 hour; concentration not given beside the values
Settings: HepG2 cells, read-out: Inhibition

Compound	cytotoxicity at 70.5 h [%]
O=C(CCc1n[nH]c2c1CCCC2)N1C[C@@H]2CC[C@H](C1)N(CC1CC1)C2	-7.45
CCC[C@@H]1CN(C(=O)c2cnc3ccccc3c2)C[C@H]1NS(C)(=O)=O	-1.26
CCCn1ccnc1-c1cccc(NC(=O)[C@H]2CCC(=O)N2)c1	1.18
Cc1nc(C2CCCN2CC(=O)NCCc2ccc(Cl)cc2)no1 (stereo unspecified)	-2.31
Cc1nnc(N2CCCC3(CN(c4cccc(F)c4)CCO3)C2)o1 (stereo unspecified)	1.49
CCc1nc(C)c(C(C)N(C)CCc2ccccn2)s1 (stereo unspecified)	9.61
CCc1ccccc1NC(=O)c1cnn(C)c1C	-7.12
CN(CC(=O)N(CCC#N)c1ccccc1)C1CCc2ccccc21 (stereo unspecified)	5.13
CC(=O)N1CCC(c2cncc(N3CCC(O)C3)n2)CC1 (stereo unspecified)	-2.45
Cn1ccc2ccc(C(=O)N3CCN(C(=O)OC(C)(C)C)CC3)cc21	3.39
COC(=O)N1C[C@H]2CC[C@@H]1CN(Cc1cscn1)C2	1.18
Cc1n[nH]c(C)c1CCc1ccc(S(C)(=O)=O)cc1	-13.7
CNC(=O)[C@@H]1C[C@@H](n2cc(-c3ccc(CN4CC=CC4)cc3)nn2)CN1	-9.45
COCCO[C@H]1CCN(Cc2ccsc2)[C@H]1Cc1cccnc1	24.4
Cc1cccc(-c2noc(CN3CCn4c(nnc4C4CC4)C3)n2)c1	-5
CC(=O)N1CCC(C(=O)N2CCCC(Cc3ccccn3)C2)CC1 (stereo unspecified)	-8.43
CCCn1ccnc1-c1cccc(NC(=O)C2CCCOC2)c1 (stereo unspecified)	-5.58
CC(C)(C)c1ncc(C(=O)NC(C(N)=O)c2ccccc2)s1 (stereo unspecified)	15.8
COC(=O)N1CCC(CNS(=O)(=O)c2cnn(C)c2)CC1	-0.269
Cc1nc(N2CCN(C(=O)c3ccsc3)CC2)c2cnn(C)c2n1	-10.3
Cc1csc(N2CCN(Cc3ccccn3)CC2C)n1 (stereo unspecified)	-5.63

Compound	cytotoxicity at 70.5 h [%]
COCC(C)NC(=O)c1sccc1-n1cnnn1 (stereo unspecified)	-2.58
CSc1cccc(CNC(=O)[C@H]2CNC[C@@H](C(=O)N3CCOCC3)C2)c1	-4.8
CC(C)C(C)(C#N)NC(=O)CN1CCC(c2ccnn2CCO)CC1 (stereo unspecified)	-3.64
CN(Cc1ccncc1)C(=O)[C@H]1CSCN1C(=O)OC(C)(C)C	-2.79
c1cc(CNc2ncc(-c3cnccn3)c(C3CC3)n2)ccn1	-2.59
CCCC1CCCN(Cc2csc(-c3ncccn3)n2)CC1 (stereo unspecified)	-1.51
CCc1ccc(C(COC)NC(=O)c2ccsc2)o1 (stereo unspecified)	-3.72
Cn1cc(N2C(=O)C[C@@H]3[C@@H]2CCN3C(=O)c2ccco2)cn1	-6.04
CS(=O)(=O)c1cccc(S(=O)(=O)NCCCN2CCNC(=O)C2)c1	-5.37
O=C(NCC1CCS(=O)(=O)C1)c1ccco1 (stereo unspecified)	-8.58
CC(C)N1CCOCC2(CN(Cc3cccs3)CCO2)C1 (stereo unspecified)	-0.496
CCn1nc(C)c(C(C)Nc2cc(C3CCNCC3)nc(C)n2)c1C (stereo unspecified)	-23.1
COc1ccc(-c2cccc(-c3ccn(CC4COCCO4)n3)c2)nn1 (stereo unspecified)	-5.24
CC(Cc1cccs1)NC(=O)CCn1cccn1 (stereo unspecified)	-0.682
Cc1ccccc1C(=O)N1CCC2(CCCN2CCN(C)C)CC1	-9.86
CCc1nc(C(=O)N2CCCCC2)nn1-c1ccccc1Cl	-6.89
CCCS(=O)(=O)N1CCC(NC(=O)c2cc(CC)c(C)s2)CC1	-0.636
COCc1ccc(C(=O)NCCCNc2ccc(C(F)(F)F)cn2)cc1	-11.2
CC(C)c1cc(=O)[nH]c(-c2ccccc2CN2CCC(C)(C)C2)n1	5.1
O=C(NCc1ccccc1CN1CCCC1=O)Nc1nncs1	-7.24
COc1cc(NC(=O)c2cscn2)ncn1	22.1

Compound	cytotoxicity at 70.5 h [%]
CN1CCN(c2ccc(NS(=O)(=O)c3ccc(Br)s3)cc2C(=O)O)CC1	24
CCc1nnsc1C(=O)NCc1nnc2n1CCC2	-2.79
O=C(CCNS(=O)(=O)c1ccc2c(c1)CCCC2)NCc1ccoc1	-11.5
Cc1nc(C)n(CC2CCCN(CCC(=O)Nc3cc(C)on3)C2)n1 (stereo unspecified)	-9.8
Cn1cnc(S(=O)(=O)NCC2(O)CCc3ccccc3C2)c1 (stereo unspecified)	-7.71
CN1CC(C(=O)NCCc2ccc(Br)cc2F)CC1=O (stereo unspecified)	-19.2
CO[C@H]1CN(Cc2ccccc2F)C[C@@]12CCCO2	-5.8
CNC(=O)c1cc2c(nc1N(C)C)CCN(c1ncc(C)cn1)CC2	-6.83
O=C(c1ccnc(-n2cnnc2)c1)N1CCCC2(CCOC2)C1 (stereo unspecified)	-2.19
Cc1cc(NC(=O)CN2CCc3cncnc3C2)on1	3.49
CN(Cc1cnn(C)c1)C(=O)c1ccc(Cl)c(N2CCNC2=O)c1	-22.2
CCOc1ccccc1C(CC(=O)Nc1ncc(C)s1)NC(C)=O (stereo unspecified)	14.6
Cc1c(C(=O)NCCC(=O)N2CCOCC2)sc2ccc(F)cc12	1.17
CC(C)(C)NCc1nn(Cc2ccccc2)nc1-c1ccccc1	5.21
CC(O)c1cnn(-c2ccccc2)c1 (stereo unspecified)	45.1
COCC1c2nnn(CC3CC3)c2CCN1C(=O)N1CCCC1 (stereo unspecified)	14.1
O=C(c1ccc(O)cn1)N1CCOC(Cc2cccc(C(F)(F)F)c2)C1 (stereo unspecified)	22.6
CN(Cc1ccc(F)cc1)CC1(O)CCN(C(=O)c2cccn2C)C1 (stereo unspecified)	-10.7
Cc1ccc(C(=O)Nc2nc(C)no2)cc1	-4.79
COc1ccc2c(ccn2CCC(=O)Nc2nc[nH]n2)c1	0.0223
COCc1nc(CN2C(=O)OC[C@@H]2C(C)C)no1	-6.26

Compound	cytotoxicity at 70.5 h [%]
CN(C)c1cc(N(C)Cc2cc(C(C)(C)C)n[nH]2)ncn1	-2.08
COCC(C)(C)NS(=O)(=O)C1CS(=O)(=O)c2ccccc21 (stereo unspecified)	-17.4
Cc1nc(C)n(CC2CN(CCOCC(F)(F)F)CCO2)n1 (stereo unspecified)	-17.5
CN(C)C(C(=O)NCC1(N(C)C)CCOCC1)c1ccccc1F (stereo unspecified)	-7.91
CC[C@@H]1N(Cc2ccc(C)s2)CCC[C@]12CCC(=O)N2C	-11.2
O=C1CCNc2cc3c(cc2CN1CC1CC1)OCO3	0.558
C[C@H]1C[C@H]2CN(C(=O)C3=CCCC3)CC[C@H]2O1	-9.81
CCN(CC)C(=O)Nc1ccc(C(=O)N(C)C)c(C)c1	2.13
Cc1cc2nc(SCC(=O)N3CCCCC3)n(C)c(=O)c2[nH]1	19.2
CC(C)c1noc(CCC(=O)NC(C)c2nnc3n2CCCCC3)n1 (stereo unspecified)	-6.86
CN(C)CCCn1cnc2cc(NC(=O)c3n[nH]c4c3CCC4)ccc21	-4.15
CSc1nccc(N2CCC(NCc3ccc4nsnc4c3)CC2)n1	23.1
COc1ccc(NC(=O)N2CCCCC2c2ncc[nH]2)cc1 (stereo unspecified)	-7.7
c1ccc2c(c1)SCCC2NCc1ccc(N2CCOCC2)cc1 (stereo unspecified)	-3.16
CC(C)N(C)Cc1cncc2c1CCN(CC(=O)N(C)C)C2	20
Cc1cnn(CC2CCCN2Cc2cc(C)no2)c1 (stereo unspecified)	-14
CN(C)C(=O)N1CC2(CCN(CC3CC3)CC2)c2cc(F)ccc21	19.9
COCCN1CCO[C@@H]2CN(C(=O)NCc3cccnc3)CC[C@@H]2C1	0.801
